Data from patent US10683273B2, “Compounds as DNA probes, methods and applications thereof” (JAWAHARLAL NEHRU CENTRE FOR ADVANCED SCIENTIFIC RESEARCH, priority 2015, dated 2020).

What was measured:
(G-C)20 = experiment: Switch-on NIR-fluorescence enhancement with DNA; assay type: binding; details: QCy-DT 2 μM, (G-C)20 4 μM, Tris-HCl
Method: (§1) All the chemicals, reagents, single-stranded oligos (dA20, dT20, dG20, dC20), self-complementary oligos {d(ATAT)5, (D1)mix, Drew-AT, Calf-Thymus DNA (CT-DNA), (DM1, DM2, DM3, DM4, DM5, DM6 and DM7)}, RNA, were purchased from Sigma-Aldrich. ^1H and ^13C NMR spectra were recorded on a Bruker AV-400 MHz spectrometer with chemical shifts reported as parts per million (ppm) (in DMSO-d6, tetramethylsilane as an internal standard) at 20° C. UV-vis absorption and emission spectra were measured in quartz cuvettes of 1 cm path length. High resolution mass spectra (HRMS) were obtained on Agilent Technologies 6538 UHD Accurate-Mass Q-TOF LC/MS spectrometer. All biophysical studies (UV-vis, fluorescence and Cirular dichroism) are carried out at the concentration 0-5 μM of probe, volume=500 μL, temperature=25° C. and time of incubation=2 minutes. HeLa cells and MCF7 cells used in the biological studies are obtained from “Molecular reproduction, development and genetics lab, Indian institute of science, Bangalore, India”
(§2) Stock solutions of QCy-DT are prepared in double-distilled (dd) water in the order of 10^−3 M and stored at about −10° C. DNA stock solutions are prepared by dissolving oligo samples in double-distilled (dd) water in the order of 10^−4 M. Solutions of DNA duplexes are prepared in Tris-HCl (100 mM, pH=7.4) buffer solution by mixing complementary DNA strands in equimolar concentration. This solution is then subjected to annealing by heating up to about 85° C. for about 15 minutes, subsequently cooled to room temperature for about 7 hours and stored in the refrigerator (about 4° C.) for about 4 hours.
(§3) The UV-vis absorption and emission spectra are recorded on Agilent Technologies Cary series UV-vis-NIR absorbance and Cary eclipse fluorescence spectrophotometers, respectively. Thermal denaturation (UV-melting) studies are carried out on Cary 5000 UV-vis-NIR spectrophotometer equipped with Cary temperature controller in the range of 10° C. to 90° C. with a ramp rate of 1° C./min. The variable temperature/wavelength mode is used. Absorption is monitored at 260 nm with regular 5° C. intervals. Melting temperatures (Tm) of DNA samples are calculated from the first derivatives of the absorption vs. temperature curves (thermal denaturation or melting curves) obtained by monitoring at 260 nm.
(§4) For this, poly AT-duplexes such as (A-T)20, self-complementary d(ATAT)5, Drew-AT (14 base pair self-complementary sequence with 6AT-base pairs in central core), poly GC-duplex (G-C)20, (D1)mix, which is a 16 base pair long self-complementary duplex and CT-DNA as mixed AT/GC duplexes is chosen (Table 2). […] QCy-DT experience hydrophobic environment upon binding to minor groove of AT-rich duplex DNA which prevents aromatic π-stacking interactions with base pairs and other molecules of the probe that led to the hyperchromicity in the absorbance maximum of QCy-DT. […] Further, the absorption and emission properties of QCy-DT in the presence of poly AT- and GC-duplexes are studied. […] Further, we also studied the emission behavior of QCy-DT in presence of CT-DNA, (D1)mix, single-stranded (ss) DNAs and RNA. […] To ascertain the switch-on behavior of QCy-DT in the presence of AT-rich DNA duplex, viscosity measurements are performed by increasing the glycerol content in buffer solution. […] Consequently, the observed strong fluorescence enhancement in the presence of AT-rich DNA duplexes is the result of restriction of intramolecular rotation of probe QCy-DT in the constrained environments of DNA, which also facilitates the desolvation (water molecules) around QCy-DT in the hydrophobic environment of DNA duplex (FIG. 1c).

[1] = tested on: single-stranded (ss) DNAs; experiment: Switch-on NIR-fluorescence enhancement with DNA; assay type: binding; details: ssDNAs
Method: as §1, §2, §3, §4

Drew-AT = experiment: Switch-on NIR-fluorescence enhancement with DNA; assay type: binding
Method: as §1, §2, §3, §4

(D1)mix = experiment: Switch-on NIR-fluorescence enhancement with DNA; assay type: binding
Method: as §1, §2, §3, §4

(A-T)20 = experiment: Switch-on NIR-fluorescence enhancement with DNA; assay type: binding
Method: as §1, §2, §3, §4

CT-DNA = experiment: Switch-on NIR-fluorescence enhancement with DNA; assay type: binding, Calf
Method: All the chemicals, reagents, single-stranded oligos (dA20, dT20, dG20, dC20), self-complementary oligos {d(ATAT)5, (D1)mix, Drew-AT, Calf-Thymus DNA (CT-DNA), (DM1, DM2, DM3, DM4, DM5, DM6 and DM7)}, RNA, were purchased from Sigma-Aldrich. ^1H and ^13C NMR spectra were recorded on a Bruker AV-400 MHz spectrometer with chemical shifts reported as parts per million (ppm) (in DMSO-d6, tetramethylsilane as an internal standard) at 20° C. UV-vis absorption and emission spectra were measured in quartz cuvettes of 1 cm path length. High resolution mass spectra (HRMS) were obtained on Agilent Technologies 6538 UHD Accurate-Mass Q-TOF LC/MS spectrometer. All biophysical studies (UV-vis, fluorescence and Cirular dichroism) are carried out at the concentration 0-5 μM of probe, volume=500 μL, temperature=25° C. and time of incubation=2 minutes. […]
The UV-vis absorption and emission spectra are recorded on Agilent Technologies Cary series UV-vis-NIR absorbance and Cary eclipse fluorescence spectrophotometers, respectively. […] Absorption is monitored at 260 nm with regular 5° C. intervals. Melting temperatures (Tm) of DNA samples are calculated from the first derivatives of the absorption vs. temperature curves (thermal denaturation or melting curves) obtained by monitoring at 260 nm. […]

DNA = experiment: Stokes shift from absorption and emission spectra, in presence of DNA; assay type: physicochemical; details: present disclosure
Method: as §3
The molecular interactions of QCy-DT is studied by evaluating the absorption and emission properties in Tris-buffer (100 mM, pH=7.4) under ambient conditions. […] The NIR-fluorescence of QCy-DT arises due to extended through the Cy7 backbone and ICT process. The weak or non-fluorescent behavior of dye molecules in buffer solution is mainly attributed to the intramolecular twisting processes, which cause quenching of the fluorescence of cyanine dyes, solvation with water molecules also aids the fluorescence quenching by means of deactivation of […]. […]

P. falciparum strain 3D7 = experiment: Live fluorescence imaging of malaria parasites; assay type: cell-based, Plasmodium falciparum; details: 0.5 μM, early trophozoite stage, 30 min
Method: P. falciparum strain 3D7 is cultured. Briefly, malaria parasites are cultured in human erythrocytes in T75 flasks with RPMI 1640 (Gibco) supplemented with 10 μg/mL gentamicin (Sigma), 50 μg/mL ampicillin, 0.2% NaHCO3 (Sigma), 0.5% albumax (Invitrogen) and Hypoxanthine (27 mg/L). The culture is maintained under standard conditions (37° C. in 90% nitrogen, 5% CO2, and 5% O2). For synchronization of the parasites, ring-staged parasites are treated with 5% sorbitol at 37° C. for about 5-10 min, followed by washing with pre-warmed incomplete medium twice, and placed back in complete medium. QCy-DT probe (resuspended in Mili-Q water) is added to parasites (25±2 hpi) at a final concentration of 0.5 μM and the parasites are incubated for 30 min at 37° C. Following treatment fluorescence imaging of the parasites is performed using Carl Zeiss AXIO Imager Z1 and the software used for image capturing was AxioVision Rel. 4.8.

`C[n+]1c(/C=C/c2ccc(O)c(/C=C/c3sc4ccccc4[n+]3C)c2)sc2ccccc21` [QCy-DT, quinone cyanine-dithiazole] showed a fluorescence enhancement ((G-C)20) of 8 fold, a fluorescence enhancement [1] of roughly 2 fold and a fluorescence enhancement (Drew-AT; QCy-DT 2 μM, Drew-AT 4 μM, λem=650 nm, vs probe alone) of roughly 200 fold. The “fluorescence enhancement with 5′-AAATTT-3′ core, higher than 5′-AATT-3′ core” value (Drew-AT; ratio 5′-AAATTT-3′ / 5′-AATT-3′) was roughly 4 fold, the fluorescence enhancement ((D1)mix) was roughly 55 fold and the fluorescence enhancement ((A-T)20; QCy-DT 2 μM, (A-T)20 4 μM, Tris-HCl) was roughly 250 fold. For the same compound, the “difference in fluorescence enhancement, (A-T)20 compared to d(ATAT)5” value ((A-T)20; ratio (A-T)20 / d(ATAT)5) was roughly 4 fold, the fluorescence enhancement (CT-DNA) was roughly 40 fold and the “Stokes shift in presence of DNA” value (DNA) was 86 nm. The parasite staining (P. falciparum strain 3D7) was “specifically stain the parasite nuclei”.
